{"source": "patent US20240197890A1", "about": "“FLAVONE DERIVATIVES AND USES IN TARGETING CK2-MEDIATED DISEASES AND CONDITIONS” (Salk Institute for Biological Studies, priority 2020, published 2024)", "key": {"CK2α1": {"molecular_target": "T1, CK2α1 (Homo sapiens, UniProt P68400)", "T1 construct": "endogenous in cells", "T1 sequence (P68400 whole entry)": "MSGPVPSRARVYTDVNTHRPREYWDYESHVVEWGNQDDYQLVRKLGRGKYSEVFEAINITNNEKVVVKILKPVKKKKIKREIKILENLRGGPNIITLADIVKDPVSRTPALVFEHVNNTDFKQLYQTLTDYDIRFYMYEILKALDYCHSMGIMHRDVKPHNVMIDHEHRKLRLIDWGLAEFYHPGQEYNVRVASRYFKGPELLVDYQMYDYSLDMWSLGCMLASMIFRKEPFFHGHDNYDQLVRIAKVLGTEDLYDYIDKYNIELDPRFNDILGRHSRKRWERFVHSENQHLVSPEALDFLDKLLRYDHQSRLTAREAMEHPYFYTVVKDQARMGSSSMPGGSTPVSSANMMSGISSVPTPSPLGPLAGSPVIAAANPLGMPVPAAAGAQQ", "assay": "Thermal shift assay with Western blotting in astrocyte extracts", "assay_type": "binding", "details": "extracts of iPSC-derived astrocytes", "procedure": "Thermal shift assay and TPP. […] Protein concentration was determined by BCA assay (Bio-Rad), and lysates were diluted to 2 mg/mL. […] Reactions were incubated at rt for 30 min, after which each treated extract was divided into 10 aliquots of 95 μl in PCR strip tubes and stored on ice. […] A small aliquot (5 μl) of supernatant was saved for Western blotting, and the rest was snap frozen at −80 C and submitted for LC-MS/MS."}, "NF-κB pS529": {"tested_on": "NF-κB pS529", "assay": "Immunofluorescence of NF-κB and NF-κB pS529 in activated astrocytes", "assay_type": "cell-based, human", "details": "after 1 h", "procedure": "Immunotluorescence. […] After treatment, cells were fixed with 4% paraformaldehyde solution for 20 min at room temperature and washed 3× with DPBS for 10 min each. The cells were permeabilized using 5% horse serum and 10% Triton X in DPBS for 15 min at room temperature and blocked with 5% horse serum in PBS for 30 min at room temperature. Cells were incubated with primary antibodies in blocking buffer either overnight at 4° C. or for 2 hours at room temperature. After incubation, cells were washed 3× with PBS, blocked using 5% horse serum in PBS for 30 min at room temperature, and incubated with Cy3 red-labeled or AF488 green-labeled secondary antibodies diluted in blocking buffer for 1 hour at room temperature. The cells were washed once with PBS for 10 min, then counter-stained with DAPI. The cells were washed 3× with PBS and mounted with glass coverslips and Immu-Mount solution. Images were obtained with the Zeiss fluorescent microscope. The following primary antibodies were used: rabbit anti-NF-κB (1:400; CST), mouse anti-phospho NF-κB S529 (20 ug/ml; Thermo Fisher), rabbit anti-CK2A1 (1:500; Bethyl), mouse anti-IKb alpha (1:400; CST), mouse anti-phospho IKb alpha (1:50; Santa Cruz), rabbit anti-phospho CK2A1 (1:25; Thermo Fisher), rabbit anti-phospho Cdc37 (1:50; Novus), mouse anti-phospho NF-κB S529 (1:25; R&D), rabbit anti-Cdc37 (1:100; CST), mouse anti-SQSTM1 (1:50; Santa Cruz), anti rabbit-phospho NF-κB S536 (1:1600; CST), anti rabbit-Akt (pan) (1:400; CST), anti mouse-phospho Akt S473 (1:500; Sigma).\nTo investigate the potential effects of CK2 activity on NF-κB, NF-κB and NF-κB pS529 were measured by immunofluorescence in activated astrocytes. […] At this timepoint, NF-κB pS529 levels were similar across all treatments, possibly as a result of slower turnover by pNF-κB species."}, "HMGB1": {"tested_on": "HMGB1", "assay": "HMGB1 secretion in AD patient iPSC-derived astrocytes (Western blot)", "assay_type": "cell-based, human", "procedure": "Western blotting. For drug treatment assays, cells were treated with vehicle (DMSO) or 20 μM compound and stimulated with IL1-B 10 ng/mL for 1 h, 6 h, or 24 h. Cells were dissociated with 1:1 Accutase:papain for 3 min at rt, pelleted for 5 min at 800 g, and washed twice with cold DPBS. Pellets were lysed with RIPA buffer (Sigma R0278) supplemented with Halt protease inhibitor cocktail (Thermo Fisher 78445) and clarified by centrifugation (16,000 g, 10 min, 4° C.). Protein concentration was determined by BCA assay (Thermo Fisher). Proteins were denatured in 1×LDS Buffer and 2.5% beta-mercaptoethanol (X) for 10 min at 70° C., separated on Bolt 4-12% Bis-Tris Plus polyacrylamide gels (Thermo Fisher), transferred to PVDF membranes using the iBlot 2 Dry Blotting System, and blocked with 0.1% casein-PBS (Bio-Rad) for 1 h at room temperature. The blots were incubated with primary antibodies overnight at 4° C. in PBS containing 0.1% casein and 0.2% Tween-20. […] The blots were imaged using the Odyssey CLx imaging system and blots were analyzed on the ImageStudio software (LI-COR).\nTo further investigate this CK2 dysregulation in an in vitro AD model, iPSC-derived astrocytes were generated from a cohort of 6 AD patients and 5 age-matched controls. […] HMGB1 was detected in media from AD astrocytes in the absence of inflammatory stimuli (FIG. 12C). […]"}}}
{"compound": "COc1cc(-c2cc(=O)c3c(O)cc(O)cc3o2)ccc1O", "note": "[CHR, chrysoeriol]", "values": [{"measurement": "binding / thermal stabilization of CK2a", "setting": "CK2α1", "value": "dose-dependently stabilized"}, {"measurement": "binding / thermal stabilization of CK2a", "setting": "CK2α1; listed as chrysoeriol", "value": "bind CK2a"}, {"measurement": "IL1-β-induced increase of NF-κB nuclear intensity", "setting": "NF-κB pS529", "value": "blocked"}, {"measurement": "HMGB1 secretion", "setting": "HMGB1", "value": "reduced"}]}
